Data set [1] concerns the target T1, eeAChE (electric eel acetylcholinesterase) (Electrophorus electricus, UniProt O42275).
T1 construct: Eel acetylcholinesterase (eeAChE, E.C. 3.1.1.7, from Electrophorus electricus); purchased Sigma Aldrich
Description: eeAChE inhibition, Ellman's method. The format is biochemical. (In general: In Ellman's method for cholinesterases, released thiocholine reacts with DTNB.)
Description: (§1) The eeAChE and eqBChE inhibitory activities of the compounds under study were determined following the Ellman’s method [32, 33]
(§2) Substrate solutions (ATCI or BCTI) were prepared in deionized water (conductivity ˂ 0.1 µS.cm-
(§3) Evaluation of eel acetylcholinesterase and equine butyrylcholinesterase inhibitory
(§4) The eeAChE and eqBChE inhibitory activities of the compounds under study were evaluated following the Ellman’s method [1, 2]. Briefly, a mixture containing sodium phosphate buffer, enzyme (final concentration: eeAChE 0.05 U/mL and eeBChE 0.05 U/mL), DTNB (final concentration: 400 µM) and the test compounds/reference inhibitors were preincubated for 5 minutes at 30 °C in a 96-well microplate (BRANDplates, pureGradeTM, BRAND GMBH, Wertheim, Germany). In control experiments, sodium phosphate buffer was used instead of the
(§5) ºC in a microplate reader (BioTek Synergy HT from BioTek Instruments, Winooski, VT, USA).
(§6) The rates of the substrate enzymatic hydrolysis were determined, normalized and plotted against the respective inhibitor concentration. IC50 values were obtained from the dose-response curves
(§7) and were expressed as mean ± standard deviation. IC50 values were determined in at least three
(§8) independent experiments, each performed at least in triplicates.

Data set [2] concerns the target T2, eqBChE (equine butyrylcholinesterase) (Equus caballus, UniProt P81908).
T2 construct: butyrylcholinesterase (eqBuChE, E.C. 3.1.1.8, from equine serum); purchased Sigma Aldrich; host or cells: equine serum
Description: biochemical.
Description: as §1, §2, §3, §4, §5, §6, §7, §8

The target in the next data set is T3, hAChE (Homo sapiens, UniProt P22303).
T3 construct: made in house
The data set can be described thus: Recombinant hAChE inhibition, Ellman's buffer. The format is biochemical. Here is the method:
Recombinant hAChE and hBChE were produced and purified as previously described. Test compounds were dissolved in methanol 100 % to prepare stock solutions at 40 mM and subsequently diluted in water to reach the desired concentrations. Recombinant hAChE and hBChE activities were measured in presence of appropriate compound concentrations by spectrophotometry at 412 nm and 25 °C in a 1 mL cuvette containing Ellman’s buffer (0.5 mM DTNB, 0.1% BSA, 0.1 M phosphate, pH 7.4). Measurements were performed at least in duplicate for each tested concentration and final methanol concentrations were kept below 5%.

A short description of data set [3]: Oxygen radical absorbance capacity (ORAC-FL) assay. Conditions: for ROO• radical scavenging: ORAC-FL; for ORAC-FL Index: relative Trolox equivalent ORAC value.
Data set [4] concerns differentiated SH-SY5Y cells. Description: Resazurin reduction assay (cytotoxicity). The format is cell-based, human. The note with it: 24 h. As for the experimental part:
For cytotoxicity studies, differentiated SH-SY5Y cells were incubated with increasing concentrations of the test compounds (0.20–100 µM) for 24 h. Controls were treated with culture media containing 0.1% DMSO. Cell viability was estimated using two different methods: resazurin reduction assay and NR uptake assay. […]
days. The cultures were passaged once a week by trypsinization (0.25 % trypsin/1 mM EDTA).
To avoid phenotypic changes, the cells used for all experiments were taken between 19th and 28th passages. Cells were differentiated as described previously by Fernandes et al.. Briefly, SH-SY5Y cells were seeded onto 96-well plates at a density of 25,000 cells/cm2 in cell culture medium with trans-retinoic acid (RA) (final concentration of 10 µM) and incubated for 3 days at 37 °C in a humidified, 5% CO2−95% air atmosphere. The cell culture medium was then removed and replaced with medium supplemented with 12-O-tetradecanoylphorbol-13-acetate (TPA) (final concentration 80 nM), and cells were incubated for 3 days. Stock solutions of RA (10 mM) and TPA (80 µM) were prepared in DMSO.
1.5.3. Cytotoxicity assays
1.5.3.1. Resazurin reduction assay
Resazurin is a non-fluorescent, non-toxic water-soluble dye able to permeate through cell […]
highly fluorescent resorufin [8, 9]. Since the conversion of resazurin into resorufin occurs mostly in mitochondria, the amount of resorufin produced can be used as indicator of metabolic activity. The quantity of resorufin production is proportional to the number of viable cells in culture and can be quantified fluorometrically or colorimetrically.
Resazurin reduction assay was performed as previously described by Fernandes et al..
Briefly, after the 24 h incubation periods with the test compounds, the cell culture medium was removed and replaced with fresh culture medium with resazurin (10 μg/mL) prepared in cell culture medium. Differentiated SH-SY5Y cells were incubated for 2 h at 37 °C in a humidified 5% CO2−95% air atmosphere. Then, the fluorescence was read in a multiwell microplate reader (PowerWave XS from BioTek Instruments, Vermont, US), using an excitation wavelength of 540 nm and an emission wavelength of 590 nm. The results were expressed as the percentage of resazurin reduction relative to that of the control (non-treated) cells [resazurin reduction (% of […]
1.5.3.2. Neutral red uptake assay
The neutral red (NR) uptake assay is based on the ability of viable cells to incorporate the supravital dye NR and retain it inside the lysosomes. NR uptake assay was performed as previously described by Fernandes et al. Briefly, after the 24 h incubation periods with the test compounds, the cell culture medium was removed and NR solution ([…]) in fresh cell culture medium was added. Differentiated SH-SY5Y cells and Caco-2 cells were incubated for 2 h and 1 h, respectively, at 37 °C in a humidified, 5% CO2−95% air atmosphere. Then, the cell culture medium was removed and replaced by ethanol absolute/distilled water (1:1) with 5 % acetic acid to liberate the dye from the viable cells. The absorbance was measured at 540 nm in a […]
(In general: The colour change of resazurin is a common sign of viable cells or microbes.)

The subject of data set [5] is differentiated SH-SY5Y cells. Description: Neutral red (NR) uptake assay (cytotoxicity). The format is cell-based, human. Conditions: 24 h; for effect on NR uptake: increasing concentrations up to 100 µM.
Description: To avoid phenotypic changes, the cells used for all experiments were taken between 19th and 28th passages. Cells were differentiated as described previously by Fernandes et al. [6]. Briefly, SH-SY5Y cells were seeded onto 96-well plates at a density of 25,000 cells/cm2 in cell culture medium with trans-retinoic acid (RA) (final concentration of 10 µM) and incubated for 3 days at
The neutral red (NR) uptake assay is based on the ability of viable cells to incorporate the supravital dye NR and retain it inside the lysosomes [11]. NR uptake assay was performed as previously described by Fernandes et al. [12] Briefly, after the 24 h incubation periods with the test compounds, the cell culture medium was removed and NR solution (50 mg/mL) in fresh cell culture medium was added. Differentiated SH-SY5Y cells and Caco-2 cells were incubated for 2
multiwell microplate reader (PowerWave XS from BioTek Instruments). The results were
expressed as the percentage of NR uptake relative to that of the control (non-treated) cells [NR
uptake (% of control)] ± standard error mean (SEM) of at least three independent experiments.
Stock solutions of the test compounds (10 µM) were prepared in DMSO and diluted in
Data set [6] is described as follows: Chromatographic hydrophobicity index by gradient RP-HPLC at pH 2.3.
Description: Chromatographic hydrophobicity indexes (CHIs) at pH 2.3 were determined using an experimental protocol described elsewhere [45, 46] and included in the supplementary information.
Evaluation of the chromatographic hydrophobicity index
Chromatographic hydrophobicity indexes (CHIs) values were determined using the
retention times (tR) of samples and a mixture of reference compounds. The data was acquired on
a Shimadzu high-performance liquid chromatograph SPD-M20A system (Shimadzu, Kyoto,
Japan) with a Luna C18 (2) column (Phenomenex, CA, USA) 150×4.6 mm, 5 µm. In CHI
determinations at pH 2.3, mobile phase A was aqueous solution of acetic acid 1 % (v/v) (pH 2.3),
and mobile phase B was acetonitrile. The following gradient program was applied: 1 mL/min
Calibration plots were obtained using a mixture of the following compounds:
paracetamol, theophylline, caffeine, benzimidazole, colchicine, carbamazepine, indole,
propiophenone, butyrophenone, valerophenone, and heptanophenone (Table S1, Figure S2).
hydrophobicity index (CHI) values were calculated as previously described [13, 14].
In a further data set the target is T4, hMAO-B (Homo sapiens, UniProt P27338).
T4 sequence (P27338 1-520): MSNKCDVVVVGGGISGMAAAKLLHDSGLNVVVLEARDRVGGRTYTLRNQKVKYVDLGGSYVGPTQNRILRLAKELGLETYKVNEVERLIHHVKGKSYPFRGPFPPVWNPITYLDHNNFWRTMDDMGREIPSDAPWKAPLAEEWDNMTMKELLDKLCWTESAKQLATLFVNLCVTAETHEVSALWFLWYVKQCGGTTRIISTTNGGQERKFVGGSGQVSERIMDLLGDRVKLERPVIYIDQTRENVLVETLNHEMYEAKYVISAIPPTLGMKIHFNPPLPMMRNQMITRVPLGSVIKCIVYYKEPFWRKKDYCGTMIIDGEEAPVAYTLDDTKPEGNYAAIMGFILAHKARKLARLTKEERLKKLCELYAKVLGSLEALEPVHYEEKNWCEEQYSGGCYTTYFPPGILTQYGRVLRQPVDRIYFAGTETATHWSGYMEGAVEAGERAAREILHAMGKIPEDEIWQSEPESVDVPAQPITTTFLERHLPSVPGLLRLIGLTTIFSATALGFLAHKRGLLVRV
The data set can be described thus: biochemical. On the set-up: purchased Sigma Aldrich; host or cells: insect cells (BTI-TN-5B1-4), baculovirus.

[7] abbreviates: at concentrations above 12.5 µM.

Molecules are shown by their SMILES.

T1 sequence (O42275 24-633): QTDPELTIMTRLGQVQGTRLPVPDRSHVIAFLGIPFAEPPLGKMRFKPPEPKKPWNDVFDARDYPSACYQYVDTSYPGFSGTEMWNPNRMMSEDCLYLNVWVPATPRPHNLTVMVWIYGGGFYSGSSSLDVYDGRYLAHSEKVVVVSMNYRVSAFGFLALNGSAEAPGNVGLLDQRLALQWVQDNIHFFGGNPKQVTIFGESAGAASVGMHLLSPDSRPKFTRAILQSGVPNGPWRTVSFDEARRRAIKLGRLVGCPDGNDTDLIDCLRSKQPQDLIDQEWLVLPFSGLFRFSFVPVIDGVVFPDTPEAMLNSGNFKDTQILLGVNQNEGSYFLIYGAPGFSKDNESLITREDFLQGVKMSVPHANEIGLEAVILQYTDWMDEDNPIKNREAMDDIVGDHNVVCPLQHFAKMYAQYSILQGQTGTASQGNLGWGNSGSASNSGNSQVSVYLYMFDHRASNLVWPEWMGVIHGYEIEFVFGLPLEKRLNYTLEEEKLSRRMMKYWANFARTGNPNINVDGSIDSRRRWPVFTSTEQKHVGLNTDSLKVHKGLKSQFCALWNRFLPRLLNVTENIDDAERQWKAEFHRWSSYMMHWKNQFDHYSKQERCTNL
T3 sequence (P22303 32-574 limits assumed): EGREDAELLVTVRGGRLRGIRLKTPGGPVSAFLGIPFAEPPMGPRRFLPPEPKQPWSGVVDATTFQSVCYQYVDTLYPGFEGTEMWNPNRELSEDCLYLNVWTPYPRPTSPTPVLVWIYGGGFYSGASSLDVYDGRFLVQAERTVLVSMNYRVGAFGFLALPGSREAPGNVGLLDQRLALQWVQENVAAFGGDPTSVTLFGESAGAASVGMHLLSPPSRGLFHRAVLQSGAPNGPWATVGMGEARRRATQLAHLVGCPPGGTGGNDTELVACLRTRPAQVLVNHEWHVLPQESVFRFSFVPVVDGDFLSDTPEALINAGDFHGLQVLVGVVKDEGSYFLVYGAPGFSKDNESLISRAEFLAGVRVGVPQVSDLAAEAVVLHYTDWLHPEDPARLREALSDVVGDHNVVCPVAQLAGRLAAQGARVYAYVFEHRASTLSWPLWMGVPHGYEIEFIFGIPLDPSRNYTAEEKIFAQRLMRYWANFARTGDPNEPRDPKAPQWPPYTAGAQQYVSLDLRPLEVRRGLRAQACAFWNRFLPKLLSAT
T2 sequence (P81908 whole entry): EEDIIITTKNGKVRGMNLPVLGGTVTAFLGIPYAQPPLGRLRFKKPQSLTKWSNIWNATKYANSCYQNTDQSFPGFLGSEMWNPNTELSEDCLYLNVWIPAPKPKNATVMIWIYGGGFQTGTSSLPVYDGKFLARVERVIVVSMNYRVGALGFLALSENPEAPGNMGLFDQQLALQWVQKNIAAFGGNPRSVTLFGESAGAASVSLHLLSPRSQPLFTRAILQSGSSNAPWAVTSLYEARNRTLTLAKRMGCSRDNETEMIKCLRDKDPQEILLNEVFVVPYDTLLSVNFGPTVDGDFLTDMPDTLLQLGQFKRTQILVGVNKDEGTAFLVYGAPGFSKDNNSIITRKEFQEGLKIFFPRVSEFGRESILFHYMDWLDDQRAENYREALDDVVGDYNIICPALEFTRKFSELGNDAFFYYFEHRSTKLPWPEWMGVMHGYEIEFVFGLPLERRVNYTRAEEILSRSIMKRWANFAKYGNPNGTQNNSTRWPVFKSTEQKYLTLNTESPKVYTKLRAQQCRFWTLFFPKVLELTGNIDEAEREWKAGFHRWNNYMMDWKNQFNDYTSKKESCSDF
Description for hMAO-B: The inhibitory activity of lipophilic TPP^+ cations on hMAO-A and hMAO-B was studied using an experimental protocol described elsewhere [29, 40]
Evaluation of human monoamine oxidase (hMAO) inhibitory activity The human monoamine oxidase (hMAO) inhibitory outline was assessed in microsomal MAO isoforms prepared from insect cells (BTI-TN-5B1-4) infected with recombinant baculovirus containing cDNA inserts for hMAO-A or hMAO-B an d by measuring the enzymatic conversion rates of kynuramine into 4-hydroxyquinoline. The appropriate amounts of hMAO-A and hMAO-B were adjusted to obtain, in our experimental conditions, the same maximum
All assays were performed in sodium phosphate buffer solution 50 mM pH 7.4.
The compounds under study and reference inhibitors were pre-incubated at 37 °C for 10
concentration: 2×Km) in 96-well microplates (BRANDplates, pureGradeTM, BRAND GMBH, Wertheim, Germany). Then, the reaction was started with the addition of hMAO-A or hMAO-B.
Initial velocities were determined spectrophotometrically in a microplate reader (BioTek Synergy HT from BioTek Instruments, Winooski, VT, USA) at 37 °C by measuring the formation of 4-
The initial velocities, obtained from the linear phase of product formation, were normalized and plotted against the respective inhibitor concentration. IC50 values were obtained from dose-response curves and were expressed as mean ± standard deviation. IC50 values were determined from at least three independent experiments, each performed in triplicate.

Usually IC50 stands for the concentration needed to halve the response being measured. On to `O=C(/C=C/C=C/c1ccc2c(c1)OCO2)NCCCC[P+](c1ccccc1)(c1ccccc1)c1ccccc1.[Br-]` [Compound 2, (4-((2E,4E)-5-(Benzo[d][1,3]dioxol-5-yl)penta-2,4-dienamido)butyl)triphenylphosphonium bromide], for which the IC50 in data set [1] was 6.39 ± 0.28 µM; in data set [2], 0.0282 ± 0.0014 µM; at hAChE it was 11 ± 1 µM; against hMAO-B it was 12.4 ± 1.9 µM. In addition, in data set [2], the “SI (1): eqBChE selectivity index = IC50(eeAChE)/IC50(eqBChE)” value turned out to be 226. The “ROO• radical scavenging” value in data set [3] is recorded as “unable to scavenge ROO• radicals”. The “concentrations in which the resazurin reduction was significantly decreased” value in data set [4] was not below 50 µM. Besides, the “resorufin fluorescence (% of control)” value in data set [4] (at concentrations above 25 µM) is less than 85%. In data set [5], the “effect on NR uptake” value was “remained constant”. In data set [6], this molecule came in with a CHI of 42.8. The “SI (3): hMAO-B selectivity index = IC50 (hMAO-A)/IC50 (hMAO-B)” value (“SI (3): hMAO-B selectivity index = IC50” below) on hMAO-B came out at 0.07.

As to `O=C(/C=C/C=C/c1ccc(O)c(O)c1)NCCCC[P+](c1ccccc1)(c1ccccc1)c1ccccc1.[Br-]` [Compound 4, (4-((2E,4E)-5-(3,4-Dihydroxyphenyl)penta-2,4-dienamido)butyl)triphenylphosphonium bromide], the IC50 in data set [1] was determined as 2.23 ± 0.12 µM; in data set [2], 0.0619 ± 0.0042 µM; at hAChE, 22 ± 2 µM; on hMAO-B it was 13.5 ± 1.1 µM. Moreover, the “SI (1): eqBChE selectivity index = IC50(eeAChE)/IC50(eqBChE)” value in data set [2] is listed as 36. Also, the “ORAC-FL Index” value in data set [3] is given as 3.3 ± 0.1. For the same molecule, in data set [4] (concentrations up to 100 µM), the “effect on resazurin reduction” value is recorded as “did not markedly affect”. For the same molecule, the “effect on NR uptake” value in data set [5] is reported as “remained constant”. Further, the CHI in data set [6] was found to be 34.4. The “SI (3): hMAO-B selectivity index = IC50” value on hMAO-B is listed as 0.38.

As to `O=C(/C=C/C=C/c1ccc2c(c1)OCO2)NCCCCCC[P+](c1ccccc1)(c1ccccc1)c1ccccc1.[Br-]` [Compound 3, (6-((2E,4E)-5-(Benzo[d][1,3]dioxol-5-yl)penta-2,4-dienamido)hexyl)triphenylphosphonium bromide], the IC50 stood at 5.74 ± 0.32 µM in data set [1], 0.0179 ± 0.0009 µM in data set [2], 2 ± 0.2 µM at hAChE and 4.64 ± 0.29 µM against hMAO-B. Also, the “SI (1): eqBChE selectivity index = IC50(eeAChE)/IC50(eqBChE)” value in data set [2] was 314. In addition, the “ROO• radical scavenging” value in data set [3] is “unable to scavenge ROO• radicals”. Further, the “resorufin fluorescence (% of control)” value in data set [4] (setting [7]) is recorded as less than 85%. In data set [5] (setting [7]), the “lysosomal toxicity (NR uptake)” value is “significant lysosomal toxicity”. The CHI in data set [6] is 45.8. Moreover, the “SI (3): hMAO-B selectivity index = IC50” value on hMAO-B is 0.26.

Take `O=C(/C=C/C=C/c1ccc(O)c(O)c1)NCCCCCC[P+](c1ccccc1)(c1ccccc1)c1ccccc1.[Br-]` [Compound 5, (6-((2E,4E)-5-(3,4-Dihydroxyphenyl)penta-2,4-dienamido)hexyl)triphenylphosphonium bromide]: the IC50 in data set [1] came out at 2.14 ± 0.06 µM; in data set [2] it was 0.0341 ± 0.0029 µM; on hAChE, 9 ± 0.5 µM; against hMAO-B, 10.9 ± 0.7 µM. For the same molecule, the “SI (1): eqBChE selectivity index = IC50(eeAChE)/IC50(eqBChE)” value in data set [2] was determined as 62. Besides, the “ORAC-FL Index” value in data set [3] is 3.1 ± 0.3. Besides, the “concentrations in which the resazurin reduction was significantly decreased” value in data set [4] is not below 50 µM. Further, in data set [4] (at concentrations above 25 µM), the “resorufin fluorescence (% of control)” value is less than 85%. Also, the “effect on NR uptake” value in data set [5] is reported as “remained constant”. Moreover, in data set [6], the CHI amounted to 37.2. Moreover, the “SI (3): hMAO-B selectivity index = IC50” value on hMAO-B is given as 0.20.

These data come from article PMC7926627, “Fine-Tuning the Biological Profile of Multitarget Mitochondriotropic Antioxidants for Neurodegenerative Diseases” (Antioxidants, 2021).
